Results reported in patent US7939657B2, “N-substituted benzene sulfonamides” (Elan Pharmaceuticals, Inc., priority 2003, dated 2011).

Tested on: gamma secretase cleavage of NotchΔE (constitutively active rat Notch1 construct ZEDN1)
Assay: Notch signaling assay for selective inhibitors of gamma secretase (4xwtCBF1 Luciferase reporter gene co-transfected with NotchΔE ZEDN1)
Type: cell-based
Conditions: 'the above assay' (reporter gene based Notch signaling assay), ranges stated as 'from about'
Excerpt: “A presenilin-1-dependent gamma-secretase-like protease mediates release of Notch intracellular domain.” Nature 398(6727): 518-22; Mumm, J. S., E. H. Schroeter, M. T. Saxena, A. Griesemer, X. Tian, D. J. Pan, W. J. Ray and R. Kopan (2000). “A ligand-induced extracellular cleavage regulates gamma-secretase-like proteolytic activation of Notch1.” Mol Cell 5(2): 197-206; Zhang, Z., P. Nadeau, W. Song, D. Donoviel, M. Yuan, A. Bernstein and B. A. Yankner (2000). “Presenilins are required for gamma-secretase cleavage of beta-APP and transmembrane cleavage of Notch-1.” Nat Cell Biol 2(7): 463-5). Cleavage of APP by gamma secretase leads to β-amyloid synthesis. Cleavage of Notch1 by gamma secretase results in release of the Notch intracellular domain (NICD), which translocates to the nucleus and activates gene expression (Jarriault, S., C. Brou, F. Logeat, E. H. Schroeter, R. Kopan and A. Israel (1995). “Signalling downstream of activated mammalian Notch.” Nature 377(6547): 355-8; Kopan, R., E. H. Schroeter, H. Weintraub and J. S. Nye (1996). “Signal transduction by activated Notch: importance of proteolytic processing and its regulation by the extracellular domain.” Proc Natl Acad Sci USA 93(4): 1683-8; Schroeter, E. H., J. A. Kisslinger and R. Kopan (1998). “Notch-1 signalling requires ligand-induced proteolytic release of intracellular domain.” Nature 393(6683): 382-6). In particular, Notch signaling activates transcription of the mammalian homolog of the Drosophila transcription factor hairy-enhancer of split (Hes). Transcriptional activation of Hes1 is mediated by de-repression of CBF1/RBPJk upon binding by NICD in the nucleus. These facts have been exploited to develop a reporter gene assay for Notch Signaling Hsieh, J. J., T. Henkel, P. Salmon, E. Robey, M. G. Peterson and S. D. Hayward (1996). “Truncated mammalian Notch1 activates CBF1/RBPJk-repressed genes by a mechanism resembling that of Epstein-Barr virus EBNA2.” Mol Cell Biol 16(3): 952-9; Lu, F. M. and S. E. Lux (1996). “Constitutively active human Notch1 binds to the transcription factor CBF1 and stimulates transcription through a promoter containing a CBF1-responsive element.” Proc Natl Acad Sci USA 93(11): 5663-7).
Due to the importance of Notch signaling in cell fate determination, and tissue differentiation during both development and in the adult, inhibition of Notch signaling by gamma secretase inhibitors is postulated to be a limiting factor in their therapeutic utility. […] “Notch signaling inhibits muscle cell differentiation through a CBF1-independent pathway.” Development 122(12): 3765-73 in combination with the CBF1 repressible Luciferase reporter gene 4xwtCBF1Luc (Hsieh, J. J., et al., (1996). Mol Cell Biol 16(3): 952-9).
When 4xwtCBF1 Luciferase is co-transfected with NotchΔE (ZEDN1), γ-secretase cleavage of NotchΔE releases the Notch intracellular domain (NICD), which translocates to the nucleus and de-represses CBF1mediated transcriptional repression, leading to transcription of the Luciferase reporter gene. Luciferase activity is easily assayed in cell extracts using commercially available kits. The activity of the reporter gene is directly correlated with gamma secretase cleavage of NotchΔE, and as such, a reduction in Luciferase activity provides a convenient measure of inhibition of gamma secretase cleavage of NotchΔE.

Question: For `CC(C)CNC(=O)c1ccc(CN([C@@H]2CCCCNC2=O)S(=O)(=O)c2ccc(Cl)cc2)cc1` [Compound 486, 4-({[(4-chlorophenyl)sulfonyl][(3R)-2-oxoazepan-3-yl]amino}methyl)-N-isobutylbenzamide], which IC50 is on record?
Answer: 25 to 100 nM

Question: For `CC[C@@H](NC(=O)c1ccc(CN([C@@H]2CCCCNC2=O)S(=O)(=O)c2ccc(Cl)cc2)cc1)c1ccccc1` [Compound 553, 4-({[(4-chlorophenyl)sulfonyl][(3R)-2-oxoazepan-3-yl]amino}methyl)-N-[(1R)-1-phenylpropyl]benzamide], which IC50 is on record?
Answer: 25 to 100 nM

Question: Which IC50 does the source give for `COC(=O)c1ccc(CN([C@@H]2CCCCNC2=O)S(=O)(=O)c2ccc(Cl)cc2)cc1` [Compound 275, methyl 4-({[(4-chlorophenyl)sulfonyl][(3R)-2-oxoazepan-3-yl]amino}methyl)benzoate] here?
Answer: 0.1 to 25 nM

Question: `O=C(CCCc1ccccc1)Nc1ccc(CN([C@@H]2CCCCNC2=O)S(=O)(=O)c2ccc(Cl)cc2)cc1F` [Compound 505, N-[4-({[(4-chlorophenyl)sulfonyl][(3R)-2-oxoazepan-3-yl]amino}methyl)-2-fluorophenyl]-4-phenylbutanamide] was tested. Which IC50 did it give?
Answer: 100 to 1000 nM

Question: With `O=C1NCCCCC1N(Cc1ccc(Br)s1)S(=O)(=O)c1ccc(Cl)cc1` (stereo not drawn) [Compound 160, N-(5-Bromo-thiophen-2-ylmethyl)-4-chloro-N-(2-oxo-azepan-3-yl)-benzenesulfonamide] as the molecule, how does the IC50 read?
Answer: 100 to 1000 nM

Question: How did the IC50 turn out when `O=C1NCCCC[C@H]1N(Cc1ccc(-c2nnc(-c3ccccc3)o2)cc1)S(=O)(=O)c1ccc(Cl)cc1` [Compound 672] was run?
Answer: > 1000 nM

Question: Which IC50 does the source give for `COc1ccc(CN(C2CCCCNC2=O)S(=O)(=O)c2ccc(C(C)(C)C)cc2)cc1OC` (stereo not drawn) [Compound 14, 4-tert-Butyl-N-(3,4-dimethoxy-benzyl)-N-(2-oxo-azepan-3-yl)-benzenesulfonamide] here?
Answer: > 1000 nM

Question: With `NC(=O)CN(C1CCCCNC1=O)S(=O)(=O)c1ccc(Cl)cc1` (stereo not drawn) [Compound 338, 2-[(4-Chloro-benzenesulfonyl)-(2-oxo-azepan-3-yl)-amino]-acetamide] as the molecule, how does the IC50 read?
Answer: > 1000 nM

Question: For `CCN(C(=O)c1ccc(CN([C@@H]2CCCCNC2=O)S(=O)(=O)c2ccc(Cl)cc2)cc1)C1CCCCC1` [Compound 609, 4-({[(4-chlorophenyl)sulfonyl][(3R)-2-oxoazepan-3-yl]amino}methyl)-N-cyclohexyl-N-ethylbenzamide], which IC50 is on record?
Answer: 100 to 1000 nM

Question: How did the IC50 turn out when `O=C1c2ccccc2C(=O)C1CCCCN([C@@H]1CCCCNC1=O)S(=O)(=O)c1ccc(Cl)cc1` [Compound 108, 4-chloro-N-[4-(1,3-dioxo-2,3-dihydro-1H-inden-2-yl)butyl]-N-[(3R)-2-oxoazepan-3-yl]benzenesulfonamide] was run?
Answer: 100 to 1000 nM

Question: `O=C1NCC[C@H]1N(Cc1ccc(F)cc1F)S(=O)(=O)c1ccc(Cl)cc1` [Compound 148, 4-chloro-N-(2,4-difluorobenzyl)-N-[(3R)-2-oxopyrrolidin-3-yl]benzenesulfonamide] was tested. Which IC50 did it give?
Answer: > 1000 nM

Question: `C[C@@H](NC(=O)c1ccc(CN([C@@H]2CCCCNC2=O)S(=O)(=O)c2ccc(Cl)cc2)cc1)c1ccccc1` [Compound 537, 4-({[(4-chlorophenyl)sulfonyl][(3R)-2-oxoazepan-3-yl]amino}methyl)-N-[(1R)-1-phenylethyl]benzamide] was tested. Which IC50 did it give?
Answer: 0.1 to 25 nM

Question: For `O=C1NCCCCC1N(Cc1cccn1S(=O)(=O)c1ccccc1)S(=O)(=O)c1ccc(Cl)cc1` (stereo not drawn) [Compound 206, N-(1-Benzenesulfonyl-1H-pyrrol-2-ylmethyl)-4-chloro-N-(2-oxo-azepan-3-yl)-benzenesulfonamide], which IC50 is on record?
Answer: > 1000 nM

Question: `C=C(CC)CN(C1CCCCNC1=O)S(=O)(=O)c1ccc(Cl)cc1` (stereo not drawn) [Compound 66, 4-Chloro-N-(2-ethyl-allyl)-N-(2-oxo-azepan-3-yl)-benzenesulfonamide] was tested. Which IC50 did it give?
Answer: 100 to 1000 nM

Question: How did the IC50 turn out when `O=C1NCCCC[C@H]1N(CCCOCc1ccccc1)S(=O)(=O)c1ccc(Cl)cc1` [Compound 89, N-[3-(benzyloxy)propyl]-4-chloro-N-[(3R)-2-oxoazepan-3-yl]benzenesulfonamide] was run?
Answer: > 1000 nM

Question: How did the IC50 turn out when `O=C(NCc1ccccc1OC(F)(F)F)c1ccc(CN([C@@H]2CCCCNC2=O)S(=O)(=O)c2ccc(Cl)cc2)cc1` [Compound 579, 4-({[(4-chlorophenyl)sulfonyl][(3R)-2-oxoazepan-3-yl]amino}methyl)-N-[2-(trifluoromethoxy)benzyl]benzamide] was run?
Answer: 100 to 1000 nM

Question: With `O=C1NCCCC[C@H]1N(Cc1ccc2ccccc2c1)S(=O)(=O)c1ccc(Cl)cc1` [Compound 227, 4-chloro-N-(2-naphthylmethyl)-N-[(3R)-2-oxoazepan-3-yl]benzenesulfonamide] as the molecule, how does the IC50 read?
Answer: 25 to 100 nM

Question: How did the IC50 turn out when `O=C1NCCCC[C@H]1N(Cc1ccc(-c2nnn[nH]2)cc1)S(=O)(=O)c1ccc(Cl)cc1` [Compound 663] was run?
Answer: 25 to 100 nM

Question: For `O=C(NCc1cccnc1)c1ccc(CN([C@@H]2CCCCNC2=O)S(=O)(=O)c2ccc(Cl)cc2)cc1` [Compound 593, 4-({[(4-chlorophenyl)sulfonyl][(3R)-2-oxoazepan-3-yl]amino}methyl)-N-(pyridin-3-ylmethyl)benzamide], which IC50 is on record?
Answer: 0.1 to 25 nM

Question: How did the IC50 turn out when `CC(NC(=O)c1ccc(CN([C@@H]2CCCCNC2=O)S(=O)(=O)c2ccc(Cl)cc2)cc1)c1cccnc1` (stereo partly drawn) [Compound 636, 4-({[(4-chlorophenyl)sulfonyl][(3R)-2-oxoazepan-3-yl]amino}methyl)-N-(1-pyridin-3-ylethyl)benzamide] was run?
Answer: 25 to 100 nM

Question: With `CSc1ccc(CN(C2CCCCNC2=O)S(=O)(=O)c2ccc(Cl)cc2)cc1` (stereo not drawn) [Compound 269, 4-Chloro-N-(4-methylsulfanyl-benzyl)-N-(2-oxo-azepan-3-yl)-benzenesulfonamide] as the molecule, how does the IC50 read?
Answer: 0.1 to 25 nM

Question: How did the IC50 turn out when `O=C1NCCCC[C@H]1N(Cc1ccc(C(=O)N(Cc2cccnc2)Cc2cccnc2)cc1)S(=O)(=O)c1ccc(Cl)cc1` [Compound 613, 4-({[(4-chlorophenyl)sulfonyl][(3R)-2-oxoazepan-3-yl]amino}methyl)-N,N-bis(pyridin-3-ylmethyl)benzamide] was run?
Answer: > 1000 nM

Question: For `O=C1NCCCCC1N(Cc1ccc2c(c1)OCO2)S(=O)(=O)c1ccc(Cl)cc1` (stereo not drawn) [Compound 249, N-Benzo[1,3]dioxol-5-ylmethyl-4-chloro-N-(2-oxo-azepan-3-yl)-benzenesulfonamide], which IC50 is on record?
Answer: 0.1 to 25 nM

Question: How did the IC50 turn out when `O=C1NCCCC[C@H]1N(Cc1ccc2c(c1)OCCO2)S(=O)(=O)c1ccc(Cl)cc1` [Compound 77, 4-chloro-N-(2,3-dihydro-1,4-benzodioxin-6-ylmethyl)-N-[(3R)-2-oxoazepan-3-yl]benzenesulfonamide] was run?
Answer: 0.1 to 25 nM
